Laboratory results: the supplement of paper PMC10307832

What was measured:
Test in all cases: relative viability (nuclei count vs DMSO), 5 days (fraction); higher = more cells survive
PAC-1 + Foretinib = compound: C=CCc1cccc(/C=N/NC(=O)CN2CCN(Cc3ccccc3)CC2)c1O [PAC-1] + COc1cc2c(Oc3ccc(NC(=O)C4(C(=O)Nc5ccc(F)cc5)CC4)cc3F)ccnc2cc1OCCCN1CCOCC1 [Foretinib] (partner 0.25 µM)
In short: (§1)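 One day after seeding in 1536-well plates, lung cancer cell lines were dosed by pin tool. Dosing was either single-drug or a fixed anchor-drug dose plus five library-drug doses (not always all listed) in √10 steps. After 5 days, nuclei were stained in one fix-and-stain step and counted on 4× images, and relative viability is the nuclei count of treated wells over that of vehicle wells, given as the median of duplicate plates.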

PAC-1 + Alpelisib = compound: C=CCc1cccc(/C=N/NC(=O)CN2CCN(Cc3ccccc3)CC2)c1O [PAC-1] + Cc1nc(NC(=O)N2CCC[C@H]2C(N)=O)sc1-c1ccnc(C(C)(C)C(F)(F)F)c1 [Alpelisib] (partner 2 µM)
In short: as §1

PAC-1 + AZD7762 = compound: C=CCc1cccc(/C=N/NC(=O)CN2CCN(Cc3ccccc3)CC2)c1O [PAC-1] + NC(=O)Nc1cc(-c2cccc(F)c2)sc1C(=O)N[C@H]1CCCNC1 [AZD7762] (partner 0.2 µM)
In short: as §1

PAC-1 + OSI-027 = compound: C=CCc1cccc(/C=N/NC(=O)CN2CCN(Cc3ccccc3)CC2)c1O [PAC-1] + COc1cccc2cc(-c3nc([C@H]4CC[C@H](C(=O)O)CC4)n4ncnc(N)c34)[nH]c12 [OSI-027] (partner 0.5 µM)
In short: as §1

PAC-1 + Pemetrexed = compound: C=CCc1cccc(/C=N/NC(=O)CN2CCN(Cc3ccccc3)CC2)c1O [PAC-1] + Nc1nc2[nH]cc(CCc3ccc(C(=O)N[C@@H](CCC(=O)O)C(=O)O)cc3)c2c(=O)[nH]1 [Pemetrexed] (partner 0.2 µM)
In short: as §1

| Cell Line | relative viability (PAC-1 + Foretinib; first compound 0.02 µM) | relative viability (PAC-1 + Foretinib; first compound 0.06325 µM) | relative viability (PAC-1 + Foretinib; first compound 0.2 µM) | relative viability (PAC-1 + Foretinib; first compound 2 µM) | relative viability (PAC-1 + Alpelisib; first compound 0.02 µM) | relative viability (PAC-1 + Alpelisib; first compound 0.06325 µM) | relative viability (PAC-1 + Alpelisib; first compound 0.2 µM) | relative viability (PAC-1 + Alpelisib; first compound 2 µM) | relative viability (PAC-1 + AZD7762; first compound 0.02 µM) | relative viability (PAC-1 + AZD7762; first compound 0.06325 µM) | relative viability (PAC-1 + AZD7762; first compound 0.2 µM) | relative viability (PAC-1 + AZD7762; first compound 2 µM) | relative viability (PAC-1 + OSI-027; first compound 0.02 µM) | relative viability (PAC-1 + OSI-027; first compound 0.06325 µM) | relative viability (PAC-1 + OSI-027; first compound 0.2 µM) | relative viability (PAC-1 + OSI-027; first compound 2 µM) | relative viability (PAC-1 + Pemetrexed; first compound 0.02 µM) | relative viability (PAC-1 + Pemetrexed; first compound 0.06325 µM) | relative viability (PAC-1 + Pemetrexed; first compound 0.2 µM) | relative viability (PAC-1 + Pemetrexed; first compound 2 µM) |
| --- | --- | --- | --- | --- | --- | --- | --- | --- | --- | --- | --- | --- | --- | --- | --- | --- | --- | --- | --- | --- |
| NCI-H1703 | 0.359 | 0.434 | 0.337 | 0.309 | 0.364 | 0.414 | 0.356 | 0.344 | 0.148 | 0.128 | 0.143 | 0.124 |  |  |  |  |  |  |  |  |
| NCI-H1792 |  |  |  |  | 0.717 | 0.77 | 0.722 | 0.677 | 0.673 | 0.672 | 0.562 | 0.679 | 0.731 | 0.715 | 0.684 | 0.733 | 0.712 | 0.894 | 0.829 | 0.957 |
| NCI-H2009 | 1.2 | 1.23 | 1.21 | 1.19 | 1.1 | 1.13 | 1.13 | 1.15 |  |  |  |  | 0.645 | 0.614 | 0.582 | 0.669 | 1.03 | 0.989 | 1.1 | 0.989 |
| NCI-H2023 | 0.824 | 0.789 | 0.911 | 0.773 | 0.576 | 0.592 | 0.654 | 0.673 |  |  |  |  | 0.429 | 0.404 | 0.333 | 0.357 | 0.211 | 0.215 | 0.244 | 0.229 |
| NCI-H2228 | 0.903 | 0.862 | 0.888 | 0.786 | 0.611 | 0.672 | 0.593 | 0.753 |  |  |  |  | 0.543 | 0.513 | 0.512 | 0.564 | 0.344 | 0.361 | 0.325 | 0.346 |
| NCI-H2342 | 1.15 | 1.04 | 1.03 | 1.05 |  |  |  |  | 0.56 | 0.383 | 0.395 | 0.666 | 0.653 | 0.574 | 0.65 | 0.682 | 0.851 | 0.754 | 0.727 | 0.781 |
| SK-LU-1 | 0.834 | 0.797 | 0.78 | 0.78 | 0.901 | 1 | 0.919 | 0.854 |  |  |  |  | 0.338 | 0.363 | 0.287 | 0.326 | 0.944 | 1.02 | 0.915 | 0.99 |
| SW 900 | 1.14 | 0.976 | 0.864 | 0.717 |  |  |  |  |  | 0.744 | 0.637 | 0.678 | 0.69 | 0.828 | 0.572 | 0.496 |  | 0.456 | 0.456 | 0.531 |
| SW 1573 | 0.828 | 0.741 | 0.912 | 0.979 | 0.646 | 0.82 | 0.571 | 0.771 |  |  |  |  | 0.642 | 0.613 | 0.606 | 0.791 | 0.831 | 0.778 | 0.83 | 0.855 |
| UMC-11 | 1.06 | 1.05 | 1.04 | 1.01 | 0.982 | 0.992 | 1.05 | 1.09 |  |  |  |  | 0.546 | 0.459 | 0.461 | 0.472 | 0.78 | 0.791 | 0.802 | 0.79 |
